From ChEMBL document CHEMBL1201862, “PubChem BioAssay data set” (2004)
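Method: 48-hour compound exposure of cells in 96-well plates, five concentrations, linear interpolation of endpoints. The concentration for 50% growth inhibition is given as GI50.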 Active and inactive are the calls of the source. Cut-off read from the data, not from the text of the source: active = GI50 up to about 1.1 µM and inactive = higher.

Tests used:
Experiment in all cases: NCI anticancer screen, dose series, 48 h
[1] = tested on: HCT-116
[2] = tested on: HOP-62
[3] = tested on: LOX IMVI
[4] = tested on: U-251
[5] = tested on: ACHN
[6] = tested on: OVCAR-3
[7] = tested on: M14
[8] = tested on: CCRF-CEM
[9] = tested on: OVCAR-4
[10] = tested on: MDA-N
[11] = tested on: SF-268
[12] = tested on: TK-10
[13] = tested on: K562
[14] = tested on: MDA-MB-435
[15] = tested on: MCF7
[16] = tested on: UACC-62
[17] = tested on: HT-29
[18] = tested on: EKVX
[19] = tested on: A549
[20] = tested on: MDA-MB-231
[21] = tested on: NCI/ADR-RES
[22] = tested on: SN12C
[23] = tested on: COLO 205
[24] = tested on: NCI-H23
[25] = tested on: SNB-19
[26] = tested on: RXF 393
[27] = tested on: 786-0
[28] = tested on: SK-MEL-2
[29] = tested on: OVCAR-5
[30] = tested on: UACC-257
[31] = tested on: Hs-578T
[32] = tested on: UO-31
[33] = tested on: MOLT-4
[34] = tested on: SK-MEL-5
[35] = tested on: SF-295
[36] = tested on: HCC 2998
[37] = tested on: SNB-75
[38] = tested on: NCI-H522
[39] = tested on: Malme-3M
[40] = tested on: PC-3
[41] = tested on: SK-MEL-28
[42] = tested on: DU-145
[43] = tested on: HCT-15
[44] = tested on: NCI-H460
[45] = tested on: T47D
[46] = tested on: HOP-92
[47] = tested on: KM12
[48] = tested on: SK-OV-3
[49] = tested on: OVCAR-8
[50] = tested on: CAKI-1
[51] = tested on: IGROV-1
[52] = tested on: SW-620
[53] = tested on: BT-549
[54] = tested on: RPMI-8226
[55] = tested on: SF-539
[56] = tested on: NCI-H226
[57] = tested on: SR
[58] = tested on: A498
[59] = tested on: HL-60

Compound: COc1ccc(-c2c(/C=N/OCC(=O)O)c3sc4ccccc4n3c2/C=N/OCC(=O)O)cc1
- GI50 [1]: > 50 µM (inactive)
- GI50 [2]: > 50 µM (inactive)
- GI50 [3]: > 50 µM (inactive)
- GI50 [4]: > 50 µM (inactive)
- GI50 [5]: > 50 µM (inactive)
- GI50 [6]: > 50 µM (inactive)
- GI50 [7]: > 50 µM (inactive)
- GI50 [8]: > 50 µM (inactive)
- GI50 [9]: > 50 µM (inactive)
- GI50 [10]: > 50 µM (inactive)
- GI50 [11]: > 50 µM (inactive)
- GI50 [12]: > 50 µM (inactive)
- GI50 [13]: > 50 µM (inactive)
- GI50 [14]: > 50 µM (inactive)
- GI50 [15]: > 50 µM (inactive)
- GI50 [16]: > 50 µM (inactive)
- GI50 [17]: > 50 µM (inactive)
- GI50 [18]: > 50 µM (inactive)
- GI50 [19]: > 50 µM (inactive)
- GI50 [20]: > 50 µM (inactive)
- GI50 [21]: > 50 µM (inactive)
- GI50 [22]: > 50 µM (inactive)
- GI50 [23]: > 50 µM (inactive)
- GI50 [24]: > 50 µM (inactive)
- GI50 [25]: > 50 µM (inactive)
- GI50 [26]: > 50 µM (inactive)
- GI50 [27]: > 50 µM (inactive)
- GI50 [28]: > 50 µM (inactive)
- GI50 [29]: > 50 µM (inactive)
- GI50 [30]: > 50 µM (inactive)
- GI50 [31]: > 50 µM (inactive)
- GI50 [32]: 11.9 µM (inactive)
- GI50 [33]: > 50 µM (inactive)
- GI50 [34]: > 50 µM (inactive)
- GI50 [35]: > 50 µM (inactive)
- GI50 [36]: > 50 µM (inactive)
- GI50 [37]: > 50 µM (inactive)
- GI50 [38]: > 50 µM (inactive)
- GI50 [39]: > 50 µM (inactive)
- GI50 [40]: > 50 µM (inactive)
- GI50 [41]: > 50 µM (inactive)
- GI50 [42]: > 50 µM (inactive)
- GI50 [43]: > 50 µM
- GI50 [44]: > 50 µM (inactive)
- GI50 [45]: > 50 µM (inactive)
- GI50 [46]: 21.8 µM (inactive)
- GI50 [47]: > 50 µM (inactive)
- GI50 [48]: > 50 µM (inactive)
- GI50 [49]: > 50 µM (inactive)
- GI50 [50]: > 50 µM (inactive)
- GI50 [51]: > 50 µM (inactive)
- GI50 [52]: > 50 µM (inactive)
- GI50 [53]: > 50 µM (inactive)

Compound: CC(C)=CC[C@H]1C[C@]2(CC=C(C)C)C(=O)[C@@](CC=C(C)C)(C(=O)C(C(=O)c3ccccc3)=C2O)C1(C)C [6-EPI-CLUSIANONE]
- GI50 [1]: 3.63 µM (inactive)
- GI50 [2]: 6.87 µM (inactive)
- GI50 [3]: 3.46 µM (inactive)
- GI50 [54]: 3.37 µM (inactive)
- GI50 [4]: 4.31 µM (inactive)
- GI50 [5]: 4.88 µM (inactive)
- GI50 [7]: 6.65 µM (inactive)
- GI50 [55]: 11.6 µM (inactive)
- GI50 [9]: 5.15 µM (inactive)
- GI50 [10]: 5.21 µM (inactive)
- GI50 [11]: 10.2 µM (inactive)
- GI50 [12]: 5.15 µM (inactive)
- GI50 [13]: 3.87 µM (inactive)
- GI50 [14]: 5.4 µM (inactive)
- GI50 [15]: 4.59 µM (inactive)
- GI50 [16]: 3.44 µM (inactive)
- GI50 [17]: 4.67 µM (inactive)
- GI50 [18]: 5.05 µM (inactive)
- GI50 [19]: 4.94 µM (inactive)
- GI50 [56]: 14.1 µM (inactive)
- GI50 [20]: 6.01 µM (inactive)
- GI50 [21]: 5.33 µM (inactive)
- GI50 [22]: 3.49 µM (inactive)
- GI50 [23]: 3.94 µM (inactive)
- GI50 [24]: 7.67 µM (inactive)
- GI50 [25]: 5.21 µM (inactive)
- GI50 [26]: 6.75 µM (inactive)
- GI50 [27]: 5.51 µM (inactive)
- GI50 [28]: 2.67 µM (inactive)
- GI50 [29]: 4.98 µM (inactive)
- GI50 [30]: 4.71 µM (inactive)
- GI50 [31]: 14.3 µM (inactive)
- GI50 [32]: 3.44 µM (inactive)
- GI50 [33]: 4.56 µM (inactive)
- GI50 [34]: 4.53 µM (inactive)
- GI50 [35]: 4.27 µM (inactive)
- GI50 [36]: 3.85 µM (inactive)
- GI50 [37]: 7.28 µM (inactive)
- GI50 [38]: 5.38 µM (inactive)
- GI50 [39]: 6.49 µM (inactive)
- GI50 [40]: 4.78 µM (inactive)
- GI50 [41]: 10.2 µM (inactive)
- GI50 [43]: 5.04 µM
- GI50 [44]: 3.3 µM (inactive)
- GI50 [45]: 5.2 µM (inactive)
- GI50 [46]: 4.31 µM (inactive)
- GI50 [47]: 3.88 µM (inactive)
- GI50 [48]: 5.32 µM (inactive)
- GI50 [49]: 5.78 µM (inactive)
- GI50 [50]: 4.44 µM (inactive)
- GI50 [57]: 8.65 µM (inactive)
- GI50 [58]: 9.46 µM (inactive)
- GI50 [51]: 3.82 µM (inactive)
- GI50 [52]: 6.28 µM (inactive)
- GI50 [53]: 8.93 µM (inactive)

Compound: O=c1oc2ccccc2c2nc3ccccc3cc12
- GI50 [1]: 40.2 µM (inactive)
- GI50 [54]: > 100 µM (inactive)
- GI50 [4]: 30.1 µM (inactive)
- GI50 [5]: 31 µM (inactive)
- GI50 [59]: > 100 µM (inactive)
- GI50 [7]: > 100 µM (inactive)
- GI50 [8]: > 100 µM (inactive)
- GI50 [55]: 11.6 µM (inactive)
- GI50 [9]: 22.1 µM (inactive)
- GI50 [10]: > 100 µM (inactive)
- GI50 [11]: > 10 µM (inactive)
- GI50 [12]: 58.7 µM (inactive)
- GI50 [13]: > 100 µM (inactive)
- GI50 [14]: > 100 µM (inactive)
- GI50 [16]: 35.3 µM (inactive)
- GI50 [17]: 99.5 µM (inactive)
- GI50 [18]: 79.8 µM (inactive)
- GI50 [19]: 99.8 µM (inactive)
- GI50 [56]: 37.4 µM (inactive)
- GI50 [20]: 23 µM (inactive)
- GI50 [21]: 97.7 µM (inactive)
- GI50 [22]: 99.1 µM (inactive)
- GI50 [23]: > 100 µM (inactive)
- GI50 [24]: > 100 µM (inactive)
- GI50 [25]: 23.3 µM (inactive)
- GI50 [26]: 29.2 µM (inactive)
- GI50 [27]: 28.2 µM (inactive)
- GI50 [28]: > 100 µM (inactive)
- GI50 [29]: > 100 µM (inactive)
- GI50 [30]: 96.6 µM (inactive)
- GI50 [31]: 25.9 µM (inactive)
- GI50 [32]: 34.8 µM (inactive)
- GI50 [33]: > 100 µM (inactive)
- GI50 [34]: > 100 µM (inactive)
- GI50 [35]: 34.8 µM (inactive)
- GI50 [36]: 72.1 µM (inactive)
- GI50 [38]: 46.2 µM (inactive)
- GI50 [39]: > 100 µM (inactive)
- GI50 [40]: 56.2 µM (inactive)
- GI50 [41]: > 100 µM (inactive)
- GI50 [42]: > 100 µM (inactive)
- GI50 [43]: > 100 µM
- GI50 [44]: 37.8 µM (inactive)
- GI50 [45]: > 100 µM (inactive)
- GI50 [46]: 31.3 µM (inactive)
- GI50 [47]: > 100 µM (inactive)
- GI50 [48]: 51.9 µM (inactive)
- GI50 [49]: 46.7 µM (inactive)
- GI50 [50]: 33.8 µM (inactive)
- GI50 [57]: > 100 µM (inactive)
- GI50 [58]: 33 µM (inactive)
- GI50 [51]: 35 µM (inactive)
- GI50 [52]: > 100 µM (inactive)
- GI50 [53]: 51.2 µM (inactive)
